Assay results from patent publication US8309735B2, “Heterocyclic compounds for the inhibition of integrins and use thereof” (Shire Orphan Therapies GmbH, priority 2006, dated 2012).

Key:
[1] = biological target: T1, integrin alpha5beta1 extracellular domain Fc-fusion (Homo sapiens, UniProt P05556+P08648); experiment: alpha5beta1 - Fibronectin Binding Assay (competitive ELISA); conditions: inhibition of integrin binding to fibronectin
T1 construct: The integrin alpha5beta1 extracellular domain Fc-fusion was expressed and purified as described; made in house
Method: (§1) The optimal concentrations of integrin and ligand were selected from ELISA binding studies with variable concentrations of both to obtain optimal signal noise ratio for further studies. IC50 studies were performed with fixed concentration of ligand and integrin and a serial dilution of inhibitor. The plates were measured with SpectraMax Plus reader (Molecular Devices). The resulting inhibition curves were analyzed using SoftMaxPro 4.0 software, the turning point describes the IC50 value.
(§2) Fibronectin was purchased from Sigma and fibrinogen from Calbiochem. (EMD Biosciences, Darmstadt, Germany). The integrin alpha5beta1 extracellular domain Fc-fusion was expressed and purified as described (Coe, 2001, J. Biol. Chem., 276, 35854). Integrin alphaIIbbeta3 was purchased form Kordia (Kordia Life Science, Leiden, Netherlands)
1.1. alpha5beta1—Fibronectin Binding Assay
Fibronectin was diluted with coating buffer (15 mM Na2CO3, 35 mM NaHCO3, pH 9.6) and coated with 100 μL/well to Nunc-Immuno maxisorp plates (Nalge Nunc Europe Ltd) over night at 4° C. After discarding the coating solution plates were washed 3 times with buffer 1 (25 mM Tris, pH 7.6, 150 mM NaCl, 1 mM MnCl2, 1 mg/ml BSA) and blocked with 100 μL blocking buffer (3% BSA in PBS 0.1% Tween20) for 1 hour at room temperature. After washing the blocked plates (3 times) with buffer 1, integrin (50 μL) and either inhibitor (serial dilution in buffer 1) or buffer 1 (50 μL) were added to the wells and incubated for one hour at RT. Plates were then washed (3 times) with buffer 1 and incubated with 100 μL of anti-human-Fc-HRP antibody conjugate (Sigma-Aldrich, Taufkirchen, Germany) in buffer 1 for 1 hour at RT. After additional washing steps (3 times) with buffer 150 μL of HRP substrate solution TMB (Seramun, Germany) were added to the wells. Color development was stopped after 3-5 minutes with 50 μL 1 M H2SO4. The developed color was measured at 450 nm and analyzed as described above.

Integrin alphaIIbbeta3 = biological target: T2, Integrin alphaIIbbeta3 (Homo sapiens, UniProt P05106+P08514); experiment: alphaIIbbeta3 - Fibrinogen Binding Assay (competitive ELISA); conditions: inhibition of integrin binding to fibrinogen, read-out: IC50 alphabIIbbeta3
T2 construct: purchased Kordia (Kordia Life Science, Leiden, Netherlands)
T2 sequence (P08514 32-887 limits assumed): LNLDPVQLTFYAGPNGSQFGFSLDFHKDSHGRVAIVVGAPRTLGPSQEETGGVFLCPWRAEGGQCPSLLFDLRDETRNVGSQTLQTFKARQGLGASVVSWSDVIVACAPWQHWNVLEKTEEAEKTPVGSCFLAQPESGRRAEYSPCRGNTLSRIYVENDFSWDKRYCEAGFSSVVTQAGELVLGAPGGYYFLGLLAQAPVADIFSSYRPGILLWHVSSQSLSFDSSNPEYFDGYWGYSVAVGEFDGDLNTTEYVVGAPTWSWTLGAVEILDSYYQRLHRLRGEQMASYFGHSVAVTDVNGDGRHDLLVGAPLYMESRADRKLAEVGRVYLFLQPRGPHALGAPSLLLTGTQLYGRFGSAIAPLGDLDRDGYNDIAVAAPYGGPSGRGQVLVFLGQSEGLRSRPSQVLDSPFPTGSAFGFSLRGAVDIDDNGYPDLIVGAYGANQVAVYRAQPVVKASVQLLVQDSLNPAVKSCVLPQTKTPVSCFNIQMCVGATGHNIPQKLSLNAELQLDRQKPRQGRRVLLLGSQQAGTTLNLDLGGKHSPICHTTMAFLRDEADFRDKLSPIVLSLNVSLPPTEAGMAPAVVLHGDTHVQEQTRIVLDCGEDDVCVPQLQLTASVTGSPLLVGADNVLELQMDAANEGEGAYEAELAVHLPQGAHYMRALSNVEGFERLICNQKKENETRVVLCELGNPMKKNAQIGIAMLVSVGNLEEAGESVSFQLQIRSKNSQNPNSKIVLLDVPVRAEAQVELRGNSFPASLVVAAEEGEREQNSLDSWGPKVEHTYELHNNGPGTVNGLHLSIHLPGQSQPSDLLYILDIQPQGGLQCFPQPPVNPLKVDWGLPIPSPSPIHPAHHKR
T2 sequence (P05106 27-788): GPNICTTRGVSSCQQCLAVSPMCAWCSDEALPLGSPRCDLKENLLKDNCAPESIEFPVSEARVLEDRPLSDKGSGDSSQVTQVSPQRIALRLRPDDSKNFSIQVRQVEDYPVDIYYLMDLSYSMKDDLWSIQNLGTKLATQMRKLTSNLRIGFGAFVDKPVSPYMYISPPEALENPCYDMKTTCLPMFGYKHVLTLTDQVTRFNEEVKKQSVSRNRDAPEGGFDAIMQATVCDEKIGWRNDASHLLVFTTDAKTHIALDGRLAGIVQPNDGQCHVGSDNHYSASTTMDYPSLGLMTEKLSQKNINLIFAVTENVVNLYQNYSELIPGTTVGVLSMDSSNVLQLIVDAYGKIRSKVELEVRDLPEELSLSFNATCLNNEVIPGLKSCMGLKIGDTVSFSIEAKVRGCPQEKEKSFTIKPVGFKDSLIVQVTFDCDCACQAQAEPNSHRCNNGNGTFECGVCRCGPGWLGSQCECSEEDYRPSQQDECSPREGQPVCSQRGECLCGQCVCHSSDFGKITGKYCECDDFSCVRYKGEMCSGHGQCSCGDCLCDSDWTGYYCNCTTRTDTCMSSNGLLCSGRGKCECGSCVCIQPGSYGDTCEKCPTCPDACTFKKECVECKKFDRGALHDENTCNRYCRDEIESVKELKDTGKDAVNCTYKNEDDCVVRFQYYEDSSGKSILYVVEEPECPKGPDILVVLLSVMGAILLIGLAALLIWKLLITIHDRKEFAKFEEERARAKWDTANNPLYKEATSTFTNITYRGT
Method: as §1, §2
1.2. alphaIIbbeta3—Fibrinogen Binding Assay
Fibrinogen was diluted with coating buffer (15 mM Na2CO3, 35 mM NaHCO3, pH 9.6) and coated with 100 μL/well to Nunc-Immuno maxisorp plates over night at 4° C. After discarding the coating solution plates were washed 3 times with buffer 1 (25 mM Tris, pH 7.6, 150 mM NaCl, 1 mM MnCl2, 1 mg/ml BSA) and blocked with 100 μL blocking buffer (3% BSA in PBS 0.1% Tween20) for 1 hour at room temperature. After washing the blocked plates (3 times) with buffer 1, integrin alphaIIbbeta3 (50 μL) and either inhibitor (serial dilution in buffer 3, 25 mM Tris, pH 7.6, 150 mM NaCl, 1 mM MnCl2, 1 mg/ml BSA 1 mM MgCl2, 1 mM CaCl2,) or buffer 3 (50 μL) were added to the wells and incubated for one hour at RT. Plates were then washed (3 times) with buffer 3 and incubated with 100 μL of anti-alphaIIbbeta3 antibody (anti CD41b, Pharmingen) in buffer 3 for 1 hour at RT. Plates were washed (3 times) with buffer 3 and incubated for 1 hour with 100 μL secondary antibody (anti-mouse-HRP conjugate, Sigma) in buffer 3. After additional washing steps (3 times) with buffer 3 50 μL of HRP substrate solution TMB (Seramun) were added to the wells. Color development was stopped after 3-5 minutes with 50 μL 1 M H2SO4. The developed color was measured at 450 nm and analyzed as described above.

Row | SMILES | IC50 [1] | IC50 (Integrin alphaIIbbeta3)
1 | Cc1ccnc(NCc2coc(-c3ccc(C[C@H](NC(=O)c4c(C)cc(F)cc4C)C(=O)O)cc3)c2)c1 [Compound 37, 2-(4-Fluoro-2,6-dimethyl-benzoylamino)-3-(4-{4-[(4-methyl-pyridin-2-ylamino)-methyl]-furan-2-yl}-phenyl)-propionic acid] | < 100 nM | > 1 nM
2 | Cc1cc(C)c(C(=O)N[C@@H](Cc2ccc(-n3cc(CNc4nc5ccccc5[nH]4)nn3)cc2)C(=O)O)c(C)c1 [Compound 29, 3-(4-{4-[(1H-Benzoimidazol-2-ylamino)-methyl]-[1,2,3]triazol-1-yl}-phenyl)-2-(2,4,6-trimethyl-benzoylamino)-propionic] | < 100 nM | > 1 nM
3 | Cc1ccnc(NCc2coc(-c3ccc(C[C@H](NC(=O)c4c(C)cccc4C)C(=O)O)cc3)c2)c1 [Compound 35, 2-(2,6-Dimethyl-benzoylamino)-3-(4-{4-[(4-methyl-pyridin-2-ylamino)-methyl]-furan-2-yl}-phenyl)-propionic acid] | < 100 nM | > 1 nM
4 | CCc1cccc(C)c1C(=O)N[C@@H](Cc1ccc(-c2cc(CNc3cc(C)ccn3)co2)cc1)C(=O)O [Compound 36, 2-(2-Ethyl-6-methyl-benzoylamino)-3-(4-{4-[(4-methyl-pyridin-2-ylamino)-methyl]-furan-2-yl}-phenyl)-propionic acid] | < 100 nM | > 1 nM
5 | Cc1ccnc(NCc2coc(-c3ccc(C[C@H](NC(=O)c4c(C)cc(C)cc4C)C(=O)O)cc3)c2)c1 [Compound 12, 3-(4-{4-[(4-Methyl-pyridin-2-ylamino)-methyl]-furan-2-yl}-phenyl)-2-(2,4,6-trimethyl-benzoylamino)-propionic acid] | < 100 nM | > 1 nM
6 | Cc1ccnc(NCc2csc(-c3ccc(C[C@H](NC(=O)c4c(C)cc(C)cc4C)C(=O)O)cc3)c2)c1 [Compound 19, 3-(4-{4-[(4-Methyl-pyridin-2-ylamino)-methyl]-thiophen-2-yl}-phenyl)-2-(2,4,6-trimethyl-benzoylamino)-propionic acid] | < 100 nM | > 1 nM
7 | Cc1ccnc(NCc2ccn(-c3ccc(C[C@H](NC(=O)C4(C)CCCCC4)C(=O)O)cc3)c2)c1 [Compound 22, 2-[(1-Methyl-cyclohexanecarbonyl)-amino]-3-(4-{3-[(4-methyl-pyridin-2-ylamino)-methyl]-pyrrol-1-yl}-phenyl)-propionic acid] | < 100 nM | > 1 nM
8 | Cc1ccnc(NCc2cnc(-c3ccc(C[C@H](NC(=O)c4c(C)cc(C)cc4C)C(=O)O)cc3)s2)c1 [Compound 9, 3-(4-{5-[(4-Methyl-pyridin-2-ylamino)-methyl]-thiazol-2-yl}-phenyl)-2-(2,4,6-trimethyl-benzoylamino)-propionic acid] | < 100 nM | > 1 nM
9 | Cc1ccnc(NCc2cc(-c3ccc(C[C@H](NC(=O)c4c(C)cc(C)cc4C)C(=O)O)cc3)on2)c1 [Compound 6, 3-(4-{3-[(4-Methyl-pyridin-2-ylamino)-methyl]-isoxazol-5-yl}-phenyl)-2-(2,4,6-trimethyl-benzoylamino)-propionic acid] | < 100 nM | > 1 nM
10 | Cc1ccnc(NCc2cn(-c3ccc(C[C@H](NC(=O)c4c(C)cc(C)cc4C)C(=O)O)cc3)nn2)c1 [Compound 15, 3-(4-{4-[(4-Methyl-pyridin-2-ylamino)-methyl]-[1,2,3]triazol-1-yl}-phenyl)-2-(2,4,6-trimethyl-benzoylamino)-propionic acid] | < 100 nM | > 1 nM
